Reference: patent publication US20200239530A1, “COMPOUNDS AND METHODS OF MODULATING PROTEIN DEGRADATION” (Vividion Therapeutics, Inc., priority 2017, published 2020)

What was measured:
[1] = target: T1, BACH2 Transcription regulator protein BACH2 (Homo sapiens, UniProt Q9BYV9); test: Cysteine liganding, probe competition; assay type: binding
T1 construct: Cells were resuspended in cold PBS on ice and sonicated with a probe sonicator to achieve lysis; endogenous in cells
Outline: (§1)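 Read-out is loss of desthiobiotin iodoacetamide labelling at cysteines, measured on streptavidin-enriched tryptic peptides. Compound preincubation ran 1 hr at 25° C in PBS lysate holding 5 mg/ml proteome before the probe was added.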

[2] = target: T2, TRMT1L TRMT1-like protein (Homo sapiens, UniProt Q7Z2T5); test: Cysteine liganding, probe competition; assay type: binding
T2 construct: Cells were resuspended in cold PBS on ice and sonicated with a probe sonicator to achieve lysis; endogenous in cells
T2 sequence (Q7Z2T5 1-733): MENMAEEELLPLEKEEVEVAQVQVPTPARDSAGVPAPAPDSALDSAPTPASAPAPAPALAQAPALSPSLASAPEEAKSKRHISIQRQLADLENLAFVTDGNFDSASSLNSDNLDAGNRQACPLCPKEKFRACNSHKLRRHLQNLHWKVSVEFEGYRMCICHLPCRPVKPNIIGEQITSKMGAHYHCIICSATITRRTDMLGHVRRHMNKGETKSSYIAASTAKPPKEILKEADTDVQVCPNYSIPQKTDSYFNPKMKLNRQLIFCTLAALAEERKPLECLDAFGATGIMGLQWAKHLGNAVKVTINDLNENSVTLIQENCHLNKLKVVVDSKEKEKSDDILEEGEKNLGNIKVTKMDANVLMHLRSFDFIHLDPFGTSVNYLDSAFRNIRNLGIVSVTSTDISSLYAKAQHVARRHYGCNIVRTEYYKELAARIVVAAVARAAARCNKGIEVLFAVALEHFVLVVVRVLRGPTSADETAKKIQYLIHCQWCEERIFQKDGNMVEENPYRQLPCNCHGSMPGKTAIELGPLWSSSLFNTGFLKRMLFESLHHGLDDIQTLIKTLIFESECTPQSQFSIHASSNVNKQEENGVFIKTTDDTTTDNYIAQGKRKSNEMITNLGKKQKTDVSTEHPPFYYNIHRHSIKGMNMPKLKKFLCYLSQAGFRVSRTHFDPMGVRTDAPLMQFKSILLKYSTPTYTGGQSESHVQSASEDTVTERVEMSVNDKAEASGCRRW
Outline: as §1

[3] = uniprot Q7Z2T5, in % (unit assumed)

T1 sequence (Q9BYV9 whole entry): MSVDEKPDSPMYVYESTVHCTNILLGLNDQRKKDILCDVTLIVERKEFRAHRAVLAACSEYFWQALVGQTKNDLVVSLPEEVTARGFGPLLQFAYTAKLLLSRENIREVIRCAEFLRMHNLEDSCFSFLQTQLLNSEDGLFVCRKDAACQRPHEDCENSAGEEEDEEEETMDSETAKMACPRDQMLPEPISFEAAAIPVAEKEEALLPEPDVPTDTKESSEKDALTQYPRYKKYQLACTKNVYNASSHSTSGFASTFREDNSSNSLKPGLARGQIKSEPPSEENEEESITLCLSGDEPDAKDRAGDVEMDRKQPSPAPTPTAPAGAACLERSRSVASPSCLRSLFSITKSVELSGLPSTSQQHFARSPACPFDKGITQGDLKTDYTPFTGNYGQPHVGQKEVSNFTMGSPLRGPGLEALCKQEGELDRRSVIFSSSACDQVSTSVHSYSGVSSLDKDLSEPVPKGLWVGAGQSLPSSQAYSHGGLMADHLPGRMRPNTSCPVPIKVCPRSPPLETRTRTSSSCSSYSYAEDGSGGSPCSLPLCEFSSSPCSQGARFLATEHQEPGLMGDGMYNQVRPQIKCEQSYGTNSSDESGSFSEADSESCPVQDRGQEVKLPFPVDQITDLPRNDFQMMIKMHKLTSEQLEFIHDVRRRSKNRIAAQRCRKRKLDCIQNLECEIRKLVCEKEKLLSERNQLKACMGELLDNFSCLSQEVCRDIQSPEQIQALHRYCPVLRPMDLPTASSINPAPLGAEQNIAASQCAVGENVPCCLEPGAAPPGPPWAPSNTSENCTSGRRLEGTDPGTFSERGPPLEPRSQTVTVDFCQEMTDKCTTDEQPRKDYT

| SMILES | Liganded ([1]; BACH2 Res# 370, uniprot Q9BYV9) | Liganded ([2]; TRMT1L Res# 239, uniprot Q7Z2T5) | 100 Max ([1]; uniprot Q9BYV9) | 100 ave ([1]; uniprot Q9BYV9) | 500 ave ([1]; uniprot Q9BYV9) | 500 Max ([1]; uniprot Q9BYV9, unit assumed) [%] | 100 ave ([2]; uniprot Q7Z2T5) | 500 ave ([2]; uniprot Q7Z2T5) | 100 Max [2, 3] | 500 Max [2, 3] |
| --- | --- | --- | --- | --- | --- | --- | --- | --- | --- | --- |
| COc1ccc2c(c1)CCCN2C(=O)CCl [KB02] | YES | YES | – | – | – | – | – | – | – | – |
| O=C(CCl)Nc1cc(C(F)(F)F)cc(C(F)(F)F)c1 [KBO3] | – | – | 25.4 | 17.2 | 62.8 | 62.8 | −17.83 | 36.38 | −4.62 | 36.38 |
